From PubChem BioAssay (NCI)
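Method: 48-hour compound exposure of cells in 96-well plates, five concentrations, linear interpolation of endpoints. GI50: concentration for 50% inhibition of growth. At the TGI there is no net growth.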

How the values were obtained:
Assay in all cases: DTP human tumour cell line panel, 48 h
ACHN renal = tested on: ACHN renal
COLO 205 colon = tested on: COLO 205 colon
HS 578T breast = tested on: HS 578T breast
K-562 leukemia = tested on: K-562 leukemia
M14 melanoma = tested on: M14 melanoma
PC-3 prostate = tested on: PC-3 prostate
RPMI-8226 leukemia = tested on: RPMI-8226 leukemia
SK-MEL-28 melanoma = tested on: SK-MEL-28 melanoma
SNB-75 CNS = tested on: SNB-75 CNS
SW-620 colon = tested on: SW-620 colon

Row | SMILES | GI50 (ACHN renal) [µM] | TGI (ACHN renal) [µM] | GI50 (COLO 205 colon) [µM] | TGI (COLO 205 colon) [µM] | GI50 (HS 578T breast) [µM] | TGI (HS 578T breast) [µM] | GI50 (K-562 leukemia) [µM] | TGI (K-562 leukemia) [µM] | GI50 (M14 melanoma) [µM] | TGI (M14 melanoma) [µM] | GI50 (PC-3 prostate) [µM] | TGI (PC-3 prostate) [µM] | GI50 (RPMI-8226 leukemia) [µM] | TGI (RPMI-8226 leukemia) [µM] | GI50 (SK-MEL-28 melanoma) [µM] | TGI (SK-MEL-28 melanoma) [µM] | GI50 (SNB-75 CNS) [µM] | TGI (SNB-75 CNS) [µM] | GI50 (SW-620 colon) [µM] | TGI (SW-620 colon) [µM]
1 | Cc1ncc(C(=O)Nc2ccc(CN3CCN(C)CC3)c(C(F)(F)F)c2)cc1C#Cc1ccc(N)nc1 | 0.117 | 0.995 | 0.239 | 4.55 | 0.17 | 0.988 | 0.00333 | 24.5 | 0.126 | 0.797 | 0.72 | 5.89 | 0.237 | 1.58 | 0.251 | 1.3 | 0.434 | 1.1 | 0.244 | 1.36
2 | NC(=O)[C@@H](CC1CC1)[C@@H](CCC(F)(F)F)C(=O)N[C@H]1N=C(c2ccccc2)c2cccc(F)c2NC1=O | 66 | > 100 | > 100 | > 100 | > 100 | > 100 | 46.9 | > 100 | > 100 | > 100 | 69 | > 100 | 27.8 | > 100 | 19.7 | 52.4 | 16.3 | > 100 | > 100 | > 100
3 | Cn1c(=O)c2[nH]c(SCCN3CCOCC3)nc2n(C)c1=S | – | > 100 | – | > 100 | – | > 100 | – | > 100 | – | > 100 | – | > 100 | – | > 100 | – | > 100 | – | > 100 | – | > 100
4 | C=C/C(C)=C/C[C@]1(C)[C@H](C)[C@@H](OC(=O)CCC)[C@H](O)[C@@]23C(=C[C@H](OC)C[C@@H]12)[C@@H](OC(=O)CCC)O[C@H]3OC(C)=O | 0.234 | 0.619 | 0.444 | 1.73 | 1.13 | 3.38 | 0.438 | 2.41 | 0.881 | 2.55 | 0.511 | 2.31 | 0.341 | 1.65 | 0.431 | 1.63 | 1.21 | 2.47 | 0.333 | 1.21
5 | C1=C/COCc2cc(ccc2OCCN2CCCC2)Nc2nccc(n2)-c2ccc(o2)COC/1 | 0.699 | 11.8 | 1.29 | 2.75 | 1.89 | 6.77 | 2.65 | > 33.1 | 1.56 | 9.09 | 1.17 | 21.4 | 2.29 | 5.21 | 1.65 | 5.26 | 1.25 | 2.75 | 2.36 | 11.7
6 | CN(C)c1ccc(/C=C2\N=C(c3ccccc3)N(c3cc(C(F)(F)F)ccc3Cl)C2=O)cc1 | > 100 | > 100 | > 100 | > 100 | > 100 | > 100 | > 100 | > 100 | > 100 | > 100 | > 100 | > 100 | 35.7 | > 100 | > 100 | > 100 | > 100 | > 100 | > 100 | > 100
7 | CCN(Cc1cc(F)ccc1F)c1ccc(CO)c(Cl)c1 | 14.3 | 29.6 | 2.17 | 6.72 | 16.2 | 47.4 | 0.617 | 20.9 | 15.5 | 32.5 | 13.4 | 32.4 | 2.24 | 30.3 | 13.8 | 27.5 | 10.4 | 35.6 | 0.554 | 20.5
8 | O=c1cc(-c2ccc(O)cc2)oc2cc(O[C@@H]3O[C@H](CO)[C@@H](O)[C@H](O)[C@H]3O)cc(O)c12 | – | > 100 | – | > 100 | – | > 100 | – | > 100 | – | > 100 | – | > 100 | – | > 100 | – | > 100 | – | > 100 | – | > 100
9 | O=C(/C=C/c1ccc(O)c(O)c1)NCc1c[nH]c2ccccc12 | 45.8 | > 100 | 49 | > 100 | 73.7 | > 100 | 68.1 | > 100 | 64.8 | > 100 | 71.3 | > 100 | 57.9 | > 100 | 58.3 | > 100 | 82.4 | > 100 | 58.6 | > 100
10 | Cc1cc(Cl)ccc1OCC(=O)Nc1nc(N)nc(N)n1 | – | > 100 | – | > 100 | – | > 100 | – | > 100 | – | > 100 | – | > 100 | – | > 100 | – | > 100 | – | > 100 | – | > 100
11 | CCN1CCN(Cc2ccc(NC(=O)Nc3nc4ccc(Oc5ccnc(C(=O)NC)c5)cc4s3)cc2C(F)(F)F)CC1 | 1.39 | 2.71 | 1.8 | 3.39 | 2.01 | 4.44 | 0.0514 | 1.27 | 1.75 | 3.38 | 1.87 | 3.58 | 2.1 | 5.34 | 1.24 | 2.69 | 1.37 | 2.73 | 2.07 | 3.87
12 | CN1CCN(Cc2ccc(NC(=O)c3cncc(C#Cc4cnc(N)cc4C#N)c3)cc2C(F)(F)F)CC1 | 1.57 | 9.39 | 1.39 | 12.8 | 1.46 | 7.46 | 0.034 | 12.1 | 0.623 | 3.86 | 3.5 | 19 | 3.83 | 21 | 1.11 | 9 | 5.92 | 19.8 | 2.92 | 11.4
13 | COc1cccc(CN(C)c2ccc(CO)c(Cl)c2)c1 | 42.1 | > 100 | 3.18 | 11.7 | 43.6 | > 100 | 7.56 | > 100 | 25.2 | > 100 | 30.6 | > 100 | 12.8 | > 78.3 | 24.2 | > 100 | 22.2 | 98.4 | 4.34 | > 100
